The values that follow come from patent US10059669B2, “2-amino-3,5-difluoro-3,6-dimethyl-6-phenyl-3,4,5,6-tetrahydropyridines as BACE1 inhibitors for treating alzheimer's disease” (H. Lundbeck A/S, priority 2014, dated 2018).

Like-named read-outs stand apart in the source and are kept apart here.

As usually defined, the efflux ratio is the permeability from basolateral to apical divided by that in the opposite direction, in the common usage. A word on the inhibition: it is the drop in the measured response relative to a control, in per cent. By Ki is commonly meant the equilibrium dissociation constant of an inhibitor or competing ligand from its target.

Data set [1] concerns P-gp (MDR1). Briefly: MDCK-MDR1 assay (permeability, efflux ratio). As to conditions: dog, Papp BA/Papp AB, 60-minute incubation, Pgp substrate when ≥2. Type of data set: in vitro ADME. As to the method:
The permeability of the test compounds was assessed in MDCK-MDR1 cells that were cultured to confluency (4-6 days) in a 96 transwell plate. Test compounds were diluted with the transport buffer (HBSS+1% BSA) to a concentration of 0.5 μM and applied to the apical or basolateral side of the cell monolayer. Permeation of the test compounds from A to B direction or B to A direction was determined in triplicate over a 60-minute incubation time at 37° C. and 5% CO2 with a relative humidity of 95%. Test compounds were quantified by LC-MS/MS analysis based on the peaks area ratios of analyte/IS in both the receiver and donor wells of the transwell plate.
The apparent permeability coefficient Papp (cm/s) was calculated using the equation: Papp=(dCr/dt)×Vr/(A×C0)
Where dCr/dt is the cumulative concentration of compound in the receiver chamber as a function of time (M/s); Vr is the solution volume in the receiver chamber (0.05 mL on the apical side; 0.25 mL on the basolateral side); A is the surface area for the transport, i.e. 0.0804 cm^2 for the area of the monolayer; C0 is the initial concentration in the donor chamber (VIM).
Compounds are classified Pgp substrates when efflux ratio (Papp BA/Papp AB) is ≥2.

Data set [2] has as its target T1, BACE1 (Homo sapiens (Human), UniProt P56817). Briefly: BACE1 efficacy assay (FRET-based, commercial BACE1 kit). Type of data set: biochemical. As to conditions: 10 μM test compound. Here is the method:
The efficacy assay was performed as a FRET-based assay using a commercially available BACE1 kit (Life Technologies, P2985). 2 μl test compound at 10 μM (final concentration) and 15 μl BACE1 enzyme from the kit (final concentration 3 nM) were preincubated for 15 minutes at room temperature before addition of 15 μl of substrate from the kit (250 nM final concentration) and incubated for additional 90 minutes at room temperature. The assay plate was subsequently read in a Pherastar (Ex540/Em590). The enzyme activity observed in presence of test compound were normalized to the enzyme activity observed in presence of buffer and 10 μM (final concentration) of the high affinity BACE1 reference inhibitor (S)-6-[3-Chloro-5-(5-prop-1-ynyl-pyridin-3-yl)-thiophen-2-yl]-2-imino-3,6-dimethyl-tetra-hydropyrimidin-4-one, respectively. The efficacy of the test compounds was evaluated at 10 μM (final concentration) and defined as the percent inhibition of the enzyme activity using the equation % inhibition=100%−normalized enzyme activity in percent.

The nature of data set [3]: Bioanalysis of brain and plasma samples (exposure, UPLC-MS/MS). Type of data set: in vivo, rat. The settings on record: male, Sprague Dawley, po, 3 hours post dose; for Kp at 3 h: brain and plasma, Rat, read-out: Brain/Plasma ratio; for concentration at 3 h: read-out: Exp. Here is the method: Young adult Male Sprague Dawley rats of approximately 250 g weight were purchased from Charles River and received 0-30 mg/kg of vehicle (10% HP betaCD+1M MeSO4, pH 2.5) or test compounds (dissolved in vehicle) only by oral gavage (p.o). The compounds are dosed at a volume of 5 ml/kg. Cohorts of 5-10 animals were established for each treatment condition.
At T=180 minutes after initial dosing the animals were stunned and decapitated with a guillotine. Trunk-blood was sampled in EDTA coated tubes after decapitation of the animal. The blood was centrifuged at 2200G at 4° C. for 15 minutes and the plasma was collected and frozen at −80° C. The blood was aliquoted for Aβ ELISA and DMPK analysis. Immediately following sacrifice, the brain was extracted and split into 2 halves. The right hemibrains were snap frozen on dry ice and stored at −80° C. The left half was dissected; with the front forebrain taken for Aβ ELISA and the remainder used for DMPK analysis. These samples were also snap frozen on dry ice and stored at −80° C. until use for analysis. […]
TC was determined in plasma and brain homogenate using UltraPerformance LC® (UPLC®) chromatography followed by tandem-MS (MS/MS) detection.
Brain homogenate was prepared by homogenizing the brain 1:4 (v/v) with water:2-propanol:DMSO (50:30:20 v/v/v) followed by centrifugation and collection of the supernatant. Calibration standards and QC samples were prepared using a Hamilton robot. 150 μL of ISTD in acetonitrile (1 ng/mL ISTD) was added to 25 μL of calibration standards, QC samples and test samples (plasma and brain homogenate) using a Biomek robot. After centrifugation (6200 g, 4° C., 20 min) 100 μL supernatant from each sample was transferred to a new plate and mixed with 100 μL water with 0.1% formic acid using a Biomek robot (method file InVivo transfer). After a quick centrifugation (6200 g, 4° C., 5 min) the samples were placed in the auto-sampler.
MS/MS detection was done with an Applied Biosystems Sciex API 4000 instrument in positive-ion electrospray ionisation mode. TC and ISTD were detected at a parent>daughter mass to charge ratio (m/z). Nitrogen was used for the nebulizer and collision gases. The peak area correlated linearly with the plasma and brain concentration of the analytes in the range of 1.00-1000 ng/mL plasma and 5.00-5000 ng/g brain (corrected for dilution). If the plasma/brain sample drug concentration was above 1000 ng/mL or 5000 ng/g, the sample was diluted appropriately in blank plasma/blank brain homogenate before analysis.

For data set [4], the target named is T1, BACE1. Briefly: BACE1 binding assay (SPA-based radioligand binding). The settings on record: pH 4.5, 10 nM radioligand, Ki calculated from IC50. As to the method:
The binding assay was performed as SPA-based assay using a biotinylated form of human BACE1 recombinantly expressed and subsequently purified from Freestyle HEK293 cells. The binding assay was run in a 50 mM sodium acetate buffer, pH 4.5 containing 50 mM NaCl and 0.03% Tween-20 in white clear bottom 384 plates (Corning #3653). 10 nM (final concentration) radioligand ([^3H]—N-((1S,2R)-1-benzyl-3-cyclopropylamino-2-hydroxy-propyl)-5-(methanesulfonyl-methyl-amino)-N—((R)-1-phenyl-ethyl)-isophthalamide) (TRQ11569 purchased from GE Healthcare) was mixed with test compound at a given concentration, 6 nM (final concentration) human BACE1 and 25 μg Streptavidin coated PVT core SPA beads (RPNQ0007, GE Healthcare Life Sciences) in a total volume of 40 μl. Several concentrations of each test compound were tested in the assay for IC50 determination. The plates were incubated for one hour at room temperature and counted in a Wallac Trilux counter. Total and non-specific binding were determined using buffer and 1 μM (final concentration) of the high affinity BACE1 reference inhibitor (S)-6-[3-chloro-5-(5-prop-1-ynyl-pyridin-3-yl)-thiophen-2-yl]-2-imino-3,6-dimethyl-tetrahydro-pyrimidin-4-one, respectively. For each test compound, a IC50 value (the concentration mediating 50% inhibition of the specific binding of the radioligand) was determined from concentration-response curve and used to calculate the Ki from the equation Ki=IC50/(1+L/Kd), where L and Kd are the final concentration of the radioligand used in the assay and the dissociation constant of the radioligand, respectively. The Kd of the radioligand was determined from saturation binding experiments.

T1 sequence (P56817 46-501): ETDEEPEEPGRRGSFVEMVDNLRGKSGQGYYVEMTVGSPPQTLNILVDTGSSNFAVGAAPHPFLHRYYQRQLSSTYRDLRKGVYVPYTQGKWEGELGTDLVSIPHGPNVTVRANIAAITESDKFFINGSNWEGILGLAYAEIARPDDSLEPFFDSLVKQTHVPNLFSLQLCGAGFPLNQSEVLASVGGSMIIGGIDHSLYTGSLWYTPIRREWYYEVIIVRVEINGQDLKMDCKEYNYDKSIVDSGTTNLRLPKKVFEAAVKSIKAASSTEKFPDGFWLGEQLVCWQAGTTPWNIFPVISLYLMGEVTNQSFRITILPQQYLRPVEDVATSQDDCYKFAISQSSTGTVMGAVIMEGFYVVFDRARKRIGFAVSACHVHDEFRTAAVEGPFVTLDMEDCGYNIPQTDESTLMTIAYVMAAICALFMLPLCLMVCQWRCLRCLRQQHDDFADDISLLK

With `[2H]C([2H])([2H])Oc1cnc(C(=O)Nc2ccc(F)c([C@@]3(C)N=C(N)[C@@](C)(F)C[C@@H]3F)c2)cn1` [Compound 20, N-(3-((2R,3S,5S)-6-amino-3,5-difluoro-2,5-dimethyl-2,3,4,5-tetrahydropyridin-2-yl)-4-fluorophenyl)-5-(methoxy-d3)pyrazine-2-carboxamide], in data set [1], the efflux ratio at 60 min, 0.5 μM was determined as 0.85. Moreover, the inhibition at 10 µM in data set [2] was 106%. In addition, the Kp at 3 h in data set [3] (3 mg/kg p.o.) was found to be 2.2. Further, the concentration at 3 h in data set [3] (Brain Rat, 3 mg/kg p.o.) came out at 610 ng/g; in data set [3] (Plasma Rat, 3 mg/kg p.o.), 272 ng/g. Further, in data set [4], the Ki is 21 nM.

Turning to `[2H]C([2H])([2H])Oc1ccc(C(=O)Nc2ccc(F)c([C@@]3(C)N=C(N)[C@@](C)(F)C[C@@H]3F)c2)nc1` [Compound 19, N-(3-((2R,3S,5S)-6-amino-3,5-difluoro-2,5-dimethyl-2,3,4,5-tetrahydropyridin-2-yl)-4-fluorophenyl)-5-(methoxy-d3)picolinamide], the efflux ratio at 60 min, 0.5 μM in data set [1] was found to be 0.79. Moreover, in data set [2], the inhibition at 10 µM was determined as 106%. For the same molecule, the Kp at 3 h in data set [3] (10 mg/kg p.o.) is 2.2; in data set [3] (30 mg/kg p.o.), 2.3. In addition, the concentration at 3 h in data set [3] (Brain Rat, 10 mg/kg p.o.) came to 1020 ng/g; in data set [3] (Brain Rat, 30 mg/kg p.o.) it was 2770 ng/g; in data set [3] (Plasma Rat, 10 mg/kg p.o.), 473 ng/g; in data set [3] (Plasma Rat, 30 mg/kg p.o.), 1200 ng/g. Also, the Ki in data set [4] was 20 nM.

With `COc1ccc(C(=O)Nc2ccc(F)c([C@@]3(C)N=C(N)[C@@](C)(F)C[C@@H]3F)c2)nc1` [Compound 3, N-(3-((2R,3S,5S)-6-amino-3,5-difluoro-2,5-dimethyl-2,3,4,5-tetrahydropyridin-2-yl)-4-fluorophenyl)-5-methoxypicolinamide], the efflux ratio at 60 min, 0.5 μM in data set [1] stood at 0.96. The inhibition at 10 µM in data set [2] was 102%. Besides, the Kp at 3 h in data set [3] (10 mg/kg p.o.) was found to be 1.4; in data set [3] (30 mg/kg p.o.) it was 0.83. For the same molecule, the concentration at 3 h in data set [3] (Brain Rat, 10 mg/kg p.o.) was determined as 671 ng/g; in data set [3] (Brain Rat, 30 mg/kg p.o.), 1510 ng/g; in data set [3] (Plasma Rat, 10 mg/kg p.o.), 489 ng/g; in data set [3] (Plasma Rat, 30 mg/kg p.o.) it was 1830 ng/g. For the same molecule, in data set [4], the Ki was 23 nM.
